Key:
[1] = test system: HDAC (HeLa nuclear extract); assay: HDAC fluorimetric assay (HDAC enzymatic activity); format: biochemical
Method: HDAC inhibitors are screened using an HDAC fluorimetric assay kit (AK-500, Biomol, Plymouth Meeting, Pa.).
Each assay is setup as follows: Defrost all kit components and keep on ice until use. Dilute HeLa nuclear extract 1:29 in Assay Buffer (50 mM Tris/Cl, pH 8.0, 137 mM NaCl, 2.7 mM KCl, 1 mM MgCl2). Prepare dilutions of Trichostatin A (TSA, positive control) and test compounds in assay buffer (5× of final concentration). Dilute Fluor de Lys™ Substrate in assay buffer to 100 uM (50 fold=2× final). Dilute Fluor de Lys™ developer concentrate 20-fold (e.g. 50 μl plus 950 μl Assay Buffer) in cold assay buffer. Second, dilute the 0.2 mM Trichostatin A 100-fold in the 1× Developer (e.g. 10 μl in 1 ml; final Trichostatin A concentration in the 1× Developer=2 μM; final concentration after addition to HDAC/Substrate reaction=1 μM). Add Assay buffer, diluted trichostatin A or test inhibitor to appropriate wells of the microtiter plate. Add diluted HeLa extract or other HDAC sample to all wells except for negative controls. Allow diluted Fluor de Lys™ Substrate and the samples in the microtiter plate to equilibrate to assay temperature (e.g. 25 or 37° C. Initiate HDAC reactions by adding diluted substrate (25 μl) to each well and mixing thoroughly.
Allow HDAC reactions to proceed for 1 hour and then stopped them by addition of Fluor de Lys™ Developer (50 μl). Incubate plate at room temperature (25° C.) for 10-15 min. Read samples in a microtiter-plate reading fluorimeter capable of excitation at a wavelength in the range 350-380 nm and detection of emitted light in the range 440-460 nm.

[2] = target: T1, human EGFR (His672-Ala1210) (Homo sapiens, UniProt P00533); assay: EGFR kinase inhibition assay (HTScan EGF Receptor Kinase Assay Kit); format: biochemical
T1 construct: a construct expressing human EGFR (His672-Ala1210); GST (N); purchased Cell Signaling Technologies; host or cells: baculovirus expression system
Method: The ability of compounds to inhibit receptor kinase (EGFR) activity can be assayed using HTSCAN™ EGF Receptor Kinase Assay Kits (Cell Signaling Technologies, Danvers, Mass.). […] The protein is purified by one-step affinity chromatography using glutathione-agarose.
Immediately transfer enzyme from −80° C. to ice. Allow enzyme to thaw on ice. […] Return immediately to ice. […] Incubate reaction plate at room temperature for 30 minutes. […] Add 100 μl/well primary antibody. Incubate at room temperature for 60 minutes. […] Add 100 μl/well diluted antibody. Incubate at room temperature for 30 minutes. Wash five times with 200 μl/well PBS/T. Add 100 μl/well DELFIA® Enhancement Solution. Incubate at room temperature for 5 minutes.

[3] = target: HER2/ErbB2 (Homo sapiens, UniProt P04626); assay: HER2/ErbB2 inhibition; format: biochemical
Chain of HER2/ErbB2 (P04626 23-1255): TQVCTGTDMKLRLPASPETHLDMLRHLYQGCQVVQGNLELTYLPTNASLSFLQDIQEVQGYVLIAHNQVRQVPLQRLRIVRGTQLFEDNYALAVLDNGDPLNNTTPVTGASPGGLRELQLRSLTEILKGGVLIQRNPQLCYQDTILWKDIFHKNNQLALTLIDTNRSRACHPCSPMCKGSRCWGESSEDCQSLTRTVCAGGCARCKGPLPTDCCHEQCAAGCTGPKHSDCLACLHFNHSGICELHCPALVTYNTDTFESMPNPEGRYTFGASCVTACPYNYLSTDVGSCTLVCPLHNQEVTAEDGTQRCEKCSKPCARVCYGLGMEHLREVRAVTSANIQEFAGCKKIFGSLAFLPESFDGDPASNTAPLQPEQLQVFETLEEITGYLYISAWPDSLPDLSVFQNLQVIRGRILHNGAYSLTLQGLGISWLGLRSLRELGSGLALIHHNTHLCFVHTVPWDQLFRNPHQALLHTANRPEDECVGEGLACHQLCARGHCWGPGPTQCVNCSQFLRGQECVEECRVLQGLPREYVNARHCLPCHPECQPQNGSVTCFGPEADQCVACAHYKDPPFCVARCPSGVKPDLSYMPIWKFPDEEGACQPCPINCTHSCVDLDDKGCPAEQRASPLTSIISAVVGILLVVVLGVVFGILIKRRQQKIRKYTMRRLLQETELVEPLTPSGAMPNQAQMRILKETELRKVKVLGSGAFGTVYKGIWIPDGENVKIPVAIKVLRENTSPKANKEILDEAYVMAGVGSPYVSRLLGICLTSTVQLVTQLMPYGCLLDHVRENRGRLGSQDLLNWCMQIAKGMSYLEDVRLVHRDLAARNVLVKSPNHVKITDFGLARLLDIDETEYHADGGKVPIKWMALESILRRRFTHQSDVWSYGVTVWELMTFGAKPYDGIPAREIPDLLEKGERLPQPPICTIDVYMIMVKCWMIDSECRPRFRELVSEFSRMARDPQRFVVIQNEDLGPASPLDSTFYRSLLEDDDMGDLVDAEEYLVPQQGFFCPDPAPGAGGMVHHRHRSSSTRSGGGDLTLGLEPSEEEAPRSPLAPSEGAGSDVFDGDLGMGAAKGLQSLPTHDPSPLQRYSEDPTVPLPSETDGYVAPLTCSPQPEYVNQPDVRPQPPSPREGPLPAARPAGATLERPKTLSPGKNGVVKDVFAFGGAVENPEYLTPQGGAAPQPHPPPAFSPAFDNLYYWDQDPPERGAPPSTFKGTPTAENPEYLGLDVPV

T1 sequence (P00533 672-1210): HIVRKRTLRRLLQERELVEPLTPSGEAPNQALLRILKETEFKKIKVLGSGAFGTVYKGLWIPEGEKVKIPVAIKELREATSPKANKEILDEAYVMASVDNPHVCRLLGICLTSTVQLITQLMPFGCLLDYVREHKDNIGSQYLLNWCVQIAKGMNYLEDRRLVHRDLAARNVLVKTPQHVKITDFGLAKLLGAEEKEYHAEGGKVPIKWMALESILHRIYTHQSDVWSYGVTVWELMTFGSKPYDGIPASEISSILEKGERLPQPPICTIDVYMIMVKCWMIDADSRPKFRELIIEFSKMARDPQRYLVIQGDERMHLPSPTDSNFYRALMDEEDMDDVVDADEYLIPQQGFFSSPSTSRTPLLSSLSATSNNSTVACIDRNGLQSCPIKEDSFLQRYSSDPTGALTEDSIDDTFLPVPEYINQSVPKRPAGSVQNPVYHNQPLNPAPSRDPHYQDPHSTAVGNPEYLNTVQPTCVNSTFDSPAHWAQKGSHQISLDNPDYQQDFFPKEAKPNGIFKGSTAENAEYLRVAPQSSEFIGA

| IC50 [1] [nM] | IC50 [2] [nM] | IC50 [3] [nM] | melting point [°C] | Compound |
| --- | --- | --- | --- | --- |
| > 10000 |  |  |  | C#Cc1cc(Nc2ncnc3cc(OC)c(OCCCCC(=O)O)cc23)ccc1O |
|  | < 100 |  |  | C#Cc1cccc(Nc2ncnc3cc(OC)c(OCCCCC(=O)O)cc23)c1 |

The remaining lines, values behind:

| Compound | IC50 [1] [nM] | IC50 [2] [nM] | IC50 [3] [nM] | melting point [°C] |
| --- | --- | --- | --- | --- |
| C#Cc1cccc(Nc2ncnc3cc(OC)c(OCCCCCCC(=O)O)cc23)c1 | > 10000 | < 100 | 100 to 1000 |  |
| CCOC(=O)COc1ccc2ncnc(Nc3ccc(F)c(Cl)c3)c2c1 [Compound 0210-13, Ethyl 2-(4-(3-chloro-4-fluorophenylamino)quinazolin-6-yloxy)acetate] |  |  |  | 161 to 163 |
| C#Cc1cc(Nc2ncnc3cc(OC)c(OCCCCCCC(=O)O)cc23)ccc1O | > 10000 | < 100 |  |  |
